3 molecules from patent US20100022626A1, “Modulators of cell migration and methods of identifying same” (priority 2005, published 2010) can be followed below.

The subject of this test is H1299 cells. The test can be described thus: Phagokinetic track (PKT) assay of H1299 cells treated with cytoskeletal drugs. Format: cell-based. The settings on record: for Track area: 4 μM Latrunculin A, 2.5 μM Nocodazole or 100 ng/ml PMA, 5 h total; for Track area / Axis ratio / Effective velocity / Major axis / Migration velocity / Minor axis / Perimeter / Roughness / Solidity: mean ± SD; for Effect on cell motility (montage images, FIG. 6): Latrunculin A 4 μM, Nocadazole 2.5 μM, PMA 100 ng/ml; for PKT area compared to control cells: Latrunculin/Nocodazole p=~0, PMA p<0.05; for Axis ratio / Effective velocity / Major axis / Migration velocity / Minor axis / Perimeter / Roughness / Solidity: same treatments. As to the method:
Preparation of 96-wellplates: Glass-bottom 96-well plates (Cat. # 7706-2370, Whatmann, Inc., Clifton, N.J., USA) were treated for 2 hours at room temperature with 50 μl of 10 μg/ml fibronectin solution dissolved in PBS (Fibronectin, F-1141; Sigma Chemical Co., St Louis, Mo., USA). The wells were then washed twice with PBS and coated with 340 nm diameter white polystyrene latex beads (Product no. 2-300; batch no. 1344); Interfacial Dynamics Corporation-Molecular Probes Microspheres Technologies, USA. The bead suspension (3.2 ml) was centrifuged for 5 minutes at 20,800×g, and resuspended in 4 ml PBS by vortex, until all visible bead clumps were dispersed. The sedimentation procedure was then repeated, after which the beads were resuspended in 7 ml PBS, to a final concentration of […]. Aliquots of 70 μl of the bead suspension were added to each well, pre-coated with fibronectin, in the 96-well plate, and incubated at 37° C. for 2 hours, followed by gentle washing (×5 times) with PBS using a plate washer (Colombus Plus, Tecan, Switzerland). Before cells were plated, the PBS was replaced with 50 μl culture medium suitable for the particular cell type used in the assay (see FIG. 1).
Cell preparation for the phagokinetic track assay: MCF7 (ATCC-HTB-22), MDA-MB-231 (ATCC-HBT-26), and B16-F10 (ATCC-CRL-6475) cells were grown in Dulbeco's Modified Eagle's Medium (DMEM). H1299 cells (ATCC-CRL-5803) were grown in RPMI-1640. Both culture media were supplemented with 10% FCS, 2 mM glutamine, 100 international units/ml penicillin and 100 μg/ml streptomycin (Biological Industries, Beit Haemek, Israel), and placed in a 5% CO2 humidified incubator kept at 37° C. For the PKT assay, 200-400 cells (a 50 μl volume) were cultured in each well. Depending on the track dimensions, the number of the plated cells was calibrated to maximize the number of single cell tracks, yet minimize the number of intersecting tracks.
Phagokinetic track assay: In order to characterize the motile behavior of the various cell lines, MCF7, MDA-MB-231, B16-F10 and H1299 cells were plated on a monolayer of polystyrene beads. All were incubated at 37° C., 5% CO2 for 7 hours, except for the H1299 cells, which were incubated for 5 hours. The first three cell lines were grown in DMEM, and H1299 cells were grown in RPMI 1640 medium, Both media were supplemented with 10% FCS and penicillin/streptomycin antibiotic. At the end of the incubation period, cells were fixed with 3% PFA. Images were taken with a 10× objective, using the autofocus screening microscope system.
Automated microscopy: Commercially-available plates display large deviations from a plane, often exceeding 200 μm, which require adjustment of the focal plane for every image. Commonly-used autofocusing procedures, which are based on finding the highest contrast image among a focal series, are slow and not robust, particularly when low-contrast images, such as those yielded by a monolayer of micro-beads, are used. The phagokinetic tracks were therefore recorded using a cell-screening microscope described in detail (Paran et al., Methods in Enzymology, in press). The rapid, automated collection of sharp, in-focus PKT images was aided by a laser autofocus device (Liron et al., 2006, J Microsc 221, 145-51). The laser autofocus device enables precise location of the substrate surface, and guarantees sharp definition of track boundaries.
The microscope operating program and the image acquisition software was written (In-house) as an application within the UCSF Priism environment (http://msg.ucsf.edu/ive). The microscope includes a computer-controlled plate scanning stage (Prior, Cambridge UK) that defines the pattern of coverage of the well area by the individual images. For this application, images were taken using a 10×/0.4 objective, and adjacent fields were stitched together, forming a montage of the entire well, or any desired fraction of the well area. […]

Turning to `C/C1=C/C(=O)O[C@@H]2C[C@@H](CC[C@H](C)/C=C\C=C\CC1)O[C@@](O)([C@@H]1CSC(=O)N1)C2` [Latrunculin A], the Track area stood at 5900 ± 3500 μm^2, the Axis ratio is given as 1.5 ± 0.4, the Effective velocity came out at 8 ± 5 μm/h and the Major axis stood at 121 ± 44 μm. In addition, the Migration velocity worked out at 10 ± 6 μm/h, the Minor axis is 79 ± 19 μm, the Perimeter is recorded as 380 ± 150 μm and the Roughness was found to be 2.0 ± 0.7. The Solidity came out at 0.9 ± 0.07. In addition, for the setting “in words”, the “Effect on cell motility (montage images, FIG. 6)” value (“Effect on cell motility” for short) was “inhibited cell motility”; the “Axis ratio compared to control cells” value is given as “reduced”; the “Migration velocity compared to control cells” value is “reduced”; the “Roughness compared to control cells” value is recorded as “decreased”. The “PKT area compared to control cells” value (in words) is on record as “reduced”.

As for `COC(=O)Nc1nc2ccc(C(=O)c3cccs3)cc2[nH]1` [Nocodazole], the Track area is 6100 ± 3600 μm^2, the Axis ratio amounted to 1.6 ± 0.4, the Effective velocity was found to be 14 ± 8 μm/h and the Major axis was determined as 123 ± 43 μm. This molecule also gave a Migration velocity of 17 ± 11 μm/h, a Minor axis of 78 ± 18 μm, a Perimeter of 385 ± 140 μm and a Roughness of 2.1 ± 0.9. The molecule also came in with a Solidity of 0.9 ± 0.07. Under “in words”, the “Effect on cell motility” value is reported as “inhibited cell motility”; the “Axis ratio compared to control cells” value is given as “reduced”; the “Migration velocity compared to control cells” value is on record as “reduced”; the “Roughness compared to control cells” value was “decreased”. The “PKT area compared to control cells” value (in words) is recorded as “reduced”.

With `CCCCCCCCCCCCCC(=O)O[C@@H]1[C@@H](C)[C@@]2(O)[C@@H](C=C(CO)C[C@]3(O)C(=O)C(C)=C[C@@H]23)[C@@H]2C(C)(C)[C@]12OC(C)=O` [PMA, Phorbol 12-mirysyate 13-acetate], the Track area is reported as 14300 ± 9100 μm^2, the Axis ratio amounted to 2.1 ± 0.9, the Effective velocity is reported as 46 ± 21 μm/h and the Major axis was 220 ± 104 μm. Also, the Migration velocity worked out at 59 ± 26 μm/h, the Minor axis was 108 ± 42 μm, the Perimeter is reported as 695 ± 350 μm and the Roughness was 2.9 ± 1.4. The Solidity is on record as 0.8 ± 0.1. Also, for the setting “in words”, the “Effect on cell motility” value is recorded as “increase in cell motility”; the “Axis ratio compared to control cells” value is listed as “did not significantly differ”; the “Effective velocity compared to control cells” value was “did not significantly differ”; the “Major axis compared to control cells” value was “did not significantly differ”. Under “in words”, the “Migration velocity compared to control cells” value is recorded as “increased”, the “Minor axis compared to control cells” value is recorded as “did not significantly differ”, the “Roughness compared to control cells” value is given as “increased” and the “PKT area compared to control cells” value is recorded as “increased”. Besides, the “Solidity compared to control cells” value (in words, p<0.05) is “increased”.
